Experiments:
[1] = system: MATCA; assay: In-planta LTP post-emergence, visual phenotype; format: in vivo, Matricaria chamomilla; conditions: dicot
Experimental: A basic panel of eight weed species (Table 3) sowed in 4×4×7 cm plastic pots containing a garden mix (klasmann). Each specie was sowed in a separate pot. In each pot, 10-15 seeds were sowed according to the specie viability. Timing of application determined at a 1-2 true leaf stage. The plants grew for 30 days in a controlled greenhouse (26±2° C. day, 20±2° C. night). Hood irrigation (tap water+Shefer 5:3:8 8 mM) was given at a 50% water content by weight. Two days before application, the tested plants thinned down to three plants per pot. Compounds were soluble in water (DDW), and commercial herbicide control was soluble in formulation B (Table 4). […] Plants were evaluated at 3 time points (4, 8, 12 days after application (DAA)). At each time point, visual phenotyping was recorded using a scale of 0-6 (0: no visible effect, 6: maximum effect). […]
Post-emergence advanced dose response experiment included 4 species: SETVI, ECHCO, AMAPA, ABUTH (Tables 3, 5). […] Plants were evaluated at 4 time points (6, 12, 18 and 26 DAA). At each time point, visual phenotyping was recorded using a scale of 0-6 (0: no visible effect, 6: maximum effect). […]
Post-emergence advanced wide panel experiment included 24 weed species (Table 5). […] Visual phenotyping was recorded at 4, 11, 17 and 20 DAA using a scale of 0-6 (0: no visible effect, 6: maximum effect). […]

[2] = system: POAAN; assay: In-planta LTP pre-emergence, visual phenotype; format: in vivo, Poa annua; conditions: monocot
Experimental: (§1) A basic panel of 8 weed species (Table 3) were sowed in 4×4×7 cm plastic pots containing inert sand (Sweet sand), intensively washed using osmosis water. Each specie was sowed in a separate pot. In each pot 10-15 seeds were sowed according to the specie viability. Sowing was performed one day before application. The plants were grown for 21 days in a controlled greenhouse (26±2° C. day 20±2° C. night). Hood irrigation (tap water+Shefer 5:3:8 8 mM) was given at a 50% water content by weight. Compounds were soluble in water (DDW), and commercial herbicide control was soluble in formulation B (Table 4). Application was conducted with an industrial sprayer (TeeJet 6502E nozzle) at a rate of 2 kg/ha and spray volume of […]. Pre-emergence advanced dose response experiment application was conducted at six rates between 1-0.0312 kg/ha and spray volume of […]. Percentage of emergence was evaluated at 15 DAA. Visual phenotyping was recorded using a scale of 0-6 (0: no visible effect, 6: maximum effect) at 18 DAA. All experiments included an untreated control, a solvent control and a positive control (commercial herbicide A.I.). Statistical analysis for visual phenotyping determined by a median value of ≥3.5 and Fisher test (pval≤0.05). Statistical analysis for plant emergence determined by % emergence ≥50 and T test (pval≤0.05), as well as Wilcox test (pval≤0.05).

[3] = system: SETVI; assay: In-planta LTP pre-emergence, visual phenotype; format: in vivo, Setaria viridis; conditions: Setaria viridis, 432 h, monocot, read-out: IG Inhibited growth (% effect)
Experimental: as §1

[4] = system: Arabidopsis thaliana; assay: HTPS (high throughput on soil) - Dicot - Post-emergence; format: in vivo; conditions: N/A: not active
Experimental: (§2) Arabidopsis thaliana seeds were sown in 96 well plates filled with irrigated Sweet sand (10%>clay) that is washed from salts and minerals using tap water. 5-10 seeds were sown in the center of each well. 7-8 days post sowing, at 2 true leaves stage, thinning out was performed to ensure that compound application is done on a single plant per well. The plates were placed in a controlled greenhouse in a random order inside a bath which allows flooding irrigation with tap water supplemented with a fertilizer. Applied compounds were dissolved into a final solution of 50% acetone, 49.9% DDW, 0.1% tween-20. A 96 well plate was used as a stock plate for preparing application solutions for 8 repeats. Each row contained different concentrations per chemical. Maximal concentration for application was 1.5 Kg/Ha and dilution factor is 2.5. Chemical application was performed one day after thinning out in a chemical hood. 5 μL applied on first two true leaves in each well using 12 channel pipettes. Data collection: RGB (red, green, blue) data for green area per well was documented using camera. Data is collected at a few time points during the experiment: one day after thinning and before chemical application, two-, six- or nine-days post application. During the last two documentations, visual phenotyping was performed. Data analysis: Given RGB results and visual phenotype scores, a student t-test conducted to compare between treatment and control performance for continuous data (RGB) and Fisher exact test to analyze the non-continuous data (phenotypic scores). Dose-Response curves are generated for each treatment to infer ED50 and max. inhibition parameters, using treatment's log concentration range as the […] variable and normalized green area. Plate imaging performed at 11 and 18 DAA. RGB data for green area per well was documented and used to extract % inhibition. Dose-Response curves were built for each treatment to infer ED50, ED75 and ED90 parameters, using treatment's log concentration range as the independent variable and normalized green area as the dependent variable. Treatments were compared to controls performance given RGB results and using student's t-test (p-val≤0.05).

[5] = system: AMAPA; assay: In-planta LTP pre-emergence, visual phenotype; format: in vivo, Amaranthus palmeri; conditions: Amaranthus palmeri, 432 h, dicot, read-out: IG Inhibited growth (% effect)
Experimental: as §1

[6] = in vitro thermal shift (binding of compound to the target); conditions: thermal shift caused by binding of the compound to the (unnamed) target
[7] = system: Eragrostis teff; assay: HTPS - Monocot - Pre-emergence; format: in vivo; conditions: N/A: not active
Experimental: as §2, with “area. These experiments are conducted similarly except that either Arabidopsis thaliana or Eragrostis teff seeds were sowed (5-10 or 5-7, respectively), plant thinning out was not performed, compound dissolved into a final solution of 50% acetone, 49.9% DDW, compound application was done at 30 μL volume per well directly on sowed soil before plant emergence and data was collected 10 or 7 days after chemical application on dicot or monocot plants, respectively.” for “area.”

[8] = system: LOLPE; assay: In-planta LTP pre-emergence, visual phenotype; format: in vivo, Lolium perenne; conditions: monocot
Experimental: as §1

SMILES: NCCOc1ccc(F)c(C(=O)O)c1 [Compound 129]
- LOD Lodging (% effect) [1]: LOD^3 (40) %
- pest or weed control at 2000 g/ha ([2]; Poa annua, 432 h, read-out: IG Inhibited growth (% effect)): 80%
- DE Disturbed emergence (% effect) [2]: DE (80) %
- pest or weed control at 2000 g/ha [3]: 40%
- Emax ([4]; read-out: HTPS - Dicot - Post Max effect): 81%
- HTPS - Dicot - Post ED50 ([4]; from normalized green area): 45 g/ha
- pest or weed control at 2000 g/ha [5]: 40%
- in vitro Thermal Shift [6]: 9 °C
- HTPS - Monocot - Pre ED50 [7]: 550 g/ha
- Emax ([7]; read-out: HTPS - Monocot - Pre Max effect): 86%
- IG Inhibited growth (% effect) [8]: IG (40) %

Source: patent US20240336567A1, “PESTICIDAL AND HERBICIDAL COMPOUNDS AND METHODS OF USE THEREOF” (AG Plenus Ltd, priority 2021, published 2024)
